In general, IC50 refers to the point on the concentration scale where inhibition reaches its midpoint.

Here are results for nine molecules from patent EP4389751A1, “HETEROCYCLIC COMPOUNDS AND USES THEREOF” (Kumquat Biosciences Inc., priority 2021, dated 2024).

In one experiment the test system is GP2D cells. In words: Cell proliferation assay (CellTiter-Glo), K-Ras G12D cells. As to conditions: read-out: Inhibition of GP2D Cells (IC50). Type of experiment: cell-based. The essentials: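 GP2D (K-Ras G12D) cells seeded in DMEM with 2 mM glutamine and 10% FBS, then dosed next day with a dilution series (e.g., 9-point 3-fold). Viability read by CellTiter-Glo luminescence after about 5 days. IC50 from four-parameter fit.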
(ATP-based viability assays read luminescence as a measure of living cells.)

Another experiment concerns the target T1, K-Ras G12S (Homo sapiens, UniProt P01116, G12S).
T1 construct: made in house; host or cells: E. coli (e.g., BL21 (DE3))
In words: HTRF assay of the K-Ras / SOS1 interaction. The format is biochemical. As to conditions: IC50 (against K-Ras G12D) to IC50 (against K-Ras G12S). The essentials: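 GST-K-Ras G12S with anti-GST-Eu donor and His-hSOS1 with anti-6His-XL665 acceptor in ~5 mM HEPES pH 7.4, ~150 mM NaCl, 1 mM DTT, 0.05% BSA, 0.0025% Igepal. Read after ~10 min or longer; IC50 from 665/620 nm ratio, duplicates at 10 µM down to 0.01 µM.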

Experiment [1] addresses T2, KRAS protein (His-tagged GDP-loaded G12S 1-169) (Homo sapiens, UniProt P01116, G12S).
T2 construct: His-tagged GDP-loaded G12S 1-169
In words: Covalent modification of KRAS protein, intact-protein LC-MS. Type of experiment: binding. As to conditions: 24hrs at room temperature, KRAS protein ~2 µM. The method, boiled down: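 His-tagged GDP-loaded KRAS 1-169 (~2 µM) incubated with compound 24 h at room temperature, then quenched with formic acid. Intact-protein LC-ESI-MS on C4 column; deconvoluted peak intensities of unmodified and adducted protein give percent covalent modification.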

Like-named read-outs stand apart in the source and are kept apart here.

`N#Cc1nccn1C(=O)N1CCCN(c2nc(OC[C@@]34CCCN3C[C@H](F)C4)nc3c(F)c(-c4ccc(F)c5sc(N)nc45)c(Cl)cc23)CC1` [Compound A171, 1-(4-(7-(2-amino-7-fluorobenzo[d]thiazol-4-yl)-6-chloro-8-fluoro-2-(((2R,7aS)-2-fluorotetrahydro-1H-pyrrolizin-7a(5H)-yl)methoxy)quinazolin-4-yl)-1,4-diazepane-1-carbonyl)-1H-imidazole-2-carbonitrile]: in the experiment with GP2D cells (GP2D cells (K-Ras G12D)), the half-maximal inhibitory concentration (IC50) lay within 1000 to 10000 nM. Besides, on K-Ras G12S, the “Ratio of IC50 KRAS G12D vs. IC50 KRAS G12S” value (“Ratio” for short) is “A (A: indicates that the ratio of IC50 against KrasG12D vs. IC50 against KrasG12S is 1-fold or greater)”. Also, the “% G12S Modification at 24 hr.” value in experiment [1] is reported as “+++ (+++ indicates greater than 20% labelling)”.

As to `N#Cc1c(N)sc2c(F)ccc(-c3c(Cl)cc4c(N5CCC6C5CCCN6C(=O)n5cncn5)nc(OC[C@@]56CCCN5C[C@H](F)C6)nc4c3F)c12` (stereo partly drawn) [Compound A181, 4-(4-(4-(1H-1,2,4-triazole-1-carbonyl)octahydro-1H-pyrrolo[3,2-b]pyridin-1-yl)-6-chloro-8-fluoro-2-(((2R,7aS)-2-fluorotetrahydro-1H-pyrrolizin-7a(5H)-yl)methoxy)quinazolm-7-yl)-2-amino-7-fluorobenzo[b]thiophene-3-carbonitrile], the IC50 with GP2D cells (GP2D cells (K-Ras G12D)) is not above 1000 nM. For the same molecule, the “Ratio” value on K-Ras G12S is “A (A: indicates that the ratio of IC50 against KrasG12D vs. IC50 against KrasG12S is 1-fold or greater)”. Moreover, in experiment [1], the “% G12S Modification at 24 hr.” value is given as “+++ (+++ indicates greater than 20% labelling)”.

Take `Nc1nc2c(-c3c(Cl)cc4c(N5CCC56CCCN(C(=O)n5cncn5)C6)nc(OCC56CCCN5CC(F)C6)nc4c3F)ccc(F)c2s1` (stereo not drawn) [Compound A197, (1-(7-(2-amino-7-fluorobenzo[d]thiazol-4-yl)-6-chloro-8-fluoro-2-((2-fluorotetrahydro-1H-pyrrolizin-7a(5H)-yl)methoxy)quinazolin-4-yl)-1,6-diazaspiro[3.5]nonan-6-yl)(1H-1,2,4-triazol-1-yl)methanone]: the IC50 in the experiment on GP2D cells (GP2D cells (K-Ras G12D)) fell in the range of 1000 to 10000 nM. The “Ratio” value at K-Ras G12S is reported as “A (A: indicates that the ratio of IC50 against KrasG12D vs. IC50 against KrasG12S is 1-fold or greater)”. Moreover, the “% G12S Modification at 24 hr.” value in experiment [1] was “+++ (+++ indicates greater than 20% labelling)”.

With `Nc1nc2c(-c3c(Cl)cc4c(N5CCC6(CN(C(=O)n7cncn7)C6)C5)nc(OC[C@@]56CCCN5C[C@H](F)C6)nc4c3F)ccc(F)c2s1` [Compound A201, (6-(7-(2-amino-7-fluorobenzo[d]thiazol-4-yl)-6-chloro-8-fluoro-2-(((2R,7aS)-2-fluorotetrahydro-1H-pyrrolizin-7a(5H)-yl)methoxy)quinazolm-4-yl)-2,6-diazaspiro[3.4]octan-2-yl)(1H-1,2,4-triazol-1-yl)methanone], the IC50 in the experiment with GP2D cells (GP2D cells (K-Ras G12D)) lay within 1000 to 10000 nM. Also, at K-Ras G12S, the “Ratio” value is listed as “A (A: indicates that the ratio of IC50 against KrasG12D vs. IC50 against KrasG12S is 1-fold or greater)”. The “% G12S Modification at 24 hr.” value in experiment [1] is listed as “+++ (+++ indicates greater than 20% labelling)”.

As for `N#Cc1nccn1C(=O)N1CCN(c2nc(OC[C@@]34CCCN3C[C@H](F)C4)nc3c(F)c(-c4ccc(F)c5sc(N)nc45)c(Cl)cc23)CC(F)(F)C1` [Compound A204, 1-(4-(7-(2-amino-7-fluorobenzo[d]thiazol-4-yl)-6-chloro-8-fluoro-2-(((2R,7aS)-2-fluorotetrahydro-1H-pyrrolizin-7a(5H)-yl)methoxy)quinazolin-4-yl)-6,6-difluoro-1,4-diazepane-1 - carbonyl)-1H-imidazole-2-carbonitrile], in the experiment with GP2D cells (GP2D cells (K-Ras G12D)), the IC50 lay in the range of 1000 to 10000 nM. Further, the “Ratio” value on K-Ras G12S is given as “A (A: indicates that the ratio of IC50 against KrasG12D vs. IC50 against KrasG12S is 1-fold or greater)”. Moreover, the “% G12S Modification at 24 hr.” value in experiment [1] is recorded as “++ (++ indicates between about 1%- 20% labelling)”.

As for `Nc1nc2c(-c3c(Cl)cc4c(N[C@H]5C[C@H]6CC[C@@H](C5)N6C(=O)n5cncn5)nc(OC[C@@]56CCCN5C[C@H](F)C6)nc4c3F)ccc(F)c2s1` [Compound A207, ((1R,3r,5S)-3-((7-(2-amino-7-fluorobenzo[d]thiazol-4-yl)-6-chloro-8-fluoro-2-(((2R,7aS)-2-fluorotetrahydro-1H-pyrrolizin-7a(5H)-yl)methoxy)quinazolin-4-yl)amino)-8-azabicyclo[3.2.1]octan-8-yl)(1H-1,2,4-triazol-1-yl)methanone], the IC50 in the experiment on GP2D cells (GP2d) fell in the range of 1000 to 10000 nM. Besides, the “Ratio” value on K-Ras G12S is recorded as “A (A: indicates that the ratio of IC50 against KrasG12D vs. IC50 against KrasG12S is 1-fold or greater)”. In experiment [1], the “% G12S Modification at 24 hr.” value is reported as “+++ (+++ indicates greater than 20% labelling)”.

Turning to `Nc1nc2c(-c3c(Cl)cc4c(N5CCC56CCCN(C(=O)n5cncn5)CC6)nc(OC[C@@]56CCCN5C[C@H](F)C6)nc4c3F)ccc(F)c2s1` (stereo partly drawn) [Compound A209, (1-(7-(2-amino-7-fluorobenzo[d]thiazol-4-yl)-6-chloro-8-fluoro-2-(((2R,7aS)-2-fluorotetrahydro-1H-pyrrolizin-7a(5H)-yl)methoxy)quinazolin-4-yl)-1,7-diazaspiro[3.6]decan-7-yl)(1H-1,2,4-triazol-1-yl)methanone], in the experiment on GP2D cells (GP2D cells (K-Ras G12D)), the IC50 is 1000 to 10000 nM. The “Ratio” value at K-Ras G12S is listed as “A (A: indicates that the ratio of IC50 against KrasG12D vs. IC50 against KrasG12S is 1-fold or greater)”. Further, in experiment [1], the “% G12S Modification at 24 hr.” value was “++ (++ indicates between about 1%- 20% labelling)”.

In the case of `Nc1nc2c(-c3c(Cl)cc4c(N5CCOC6(CCN(C(=O)n7cncn7)C6)C5)nc(OC[C@@]56CCCN5C[C@H](F)C6)nc4c3F)ccc(F)c2s1` (stereo partly drawn) [Compound A221, (9-(7-(2-amino-7-fluorobenzo[d]thiazol-4-yl)-6-chloro-8-fluoro-2-(((2R,7aS)-2-fluorotetrahydro-1H-pyrrolizin-7a(5H)-yl)methoxy)quinazolin-4-yl)-6-oxa-2,9-diazaspiro[4.5]decan-2-yl)(1H-1,2,4-triazol-1-yl)methanone], in the experiment with GP2D cells (GP2D cells (K-Ras G12D)), the half-inhibitory concentration (IC50) is 1000 to 10000 nM. Also, on K-Ras G12S, the “Ratio” value was “A (A: indicates that the ratio of IC50 against KrasG12D vs. IC50 against KrasG12S is 1-fold or greater)”. Further, in experiment [1], the “% G12S Modification at 24 hr.” value is “++ (++ indicates between about 1%- 20% labelling)”.

`N#Cc1c(N)sc2c(F)ccc(-c3c(Cl)cc4c(N5CC6OCCN(C(=O)n7cncn7)C6C5)nc(OC[C@@]56CCCN5C[C@H](F)C6)nc4c3F)c12` (stereo partly drawn) [Compound A227, 4-(4-(4-(1H-1,2,4-triazole-1-carbonyl)hexahydropyrrolo[3,4-b][1,4]oxazin-6(2H)-yl)-6-chloro-8-fluoro-2-(((2R,7aS)-2-fluorotetrahydro-1H-pyrrolizin-7a(5H)-yl)methoxy)quinazolin-7-yl)-2-amino-7-fluorobenzo[b]thiophene-3-carbonitrile]: in the experiment with GP2D cells (GP2D cells (K-Ras G12D)), the IC50 fell in the range of 1000 to 10000 nM. Also, at K-Ras G12S, the “Ratio” value was “A (A: indicates that the ratio of IC50 against KrasG12D vs. IC50 against KrasG12S is 1-fold or greater)”. Besides, in experiment [1], the “% G12S Modification at 24 hr.” value is “+++ (+++ indicates greater than 20% labelling)”.
